The record followed here is US12071453B2, “Neuroactive steroids, compositions, and uses thereof” (Sage Therapeutics, Inc., priority 2013, dated 2024).

A value given as a limit tells only on which side of the number the result lay.

The target of series [1] is [35S]-TBPS binding in rat brain cortical membranes. Briefly: Steroid inhibition of [35S]-TBPS binding, rat brain cortical membranes. The settings on record: 3 nM [35S]-TBPS, in the presence of 5 μM GABA, read-out: 35S-TBPS Radioligand Displacement (IC50). The essentials: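 Washed P2 cortical membranes from Sprague-Dawley rats were incubated 90 min at room temperature with 3 nM [35S]-TBPS, 5 μM GABA and test steroid (0.5% DMSO) in 200 mM NaCl/50 mM Na–K phosphate, pH 7.4. Nonspecific binding was defined with 2 μM unlabeled TBPS, and samples were filtered and counted. IC50 and Imax came from non-linear fits, reported as mean ± SEM.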
On the technique in general: In a radioligand displacement assay an active substance lowers the binding of a labelled ligand.

The target of series [2] is T1, GABAA receptors composed of the α1β2γ2 subunits (GABRA1/GABRB2/GABRG2) (Homo sapiens, UniProt P14867+P47870).
T1 construct: expressed in transfected cells; host or cells: Xenopus laevis oocytes, injected (ratio 1:1:1)
T1 sequence (P14867 28-456): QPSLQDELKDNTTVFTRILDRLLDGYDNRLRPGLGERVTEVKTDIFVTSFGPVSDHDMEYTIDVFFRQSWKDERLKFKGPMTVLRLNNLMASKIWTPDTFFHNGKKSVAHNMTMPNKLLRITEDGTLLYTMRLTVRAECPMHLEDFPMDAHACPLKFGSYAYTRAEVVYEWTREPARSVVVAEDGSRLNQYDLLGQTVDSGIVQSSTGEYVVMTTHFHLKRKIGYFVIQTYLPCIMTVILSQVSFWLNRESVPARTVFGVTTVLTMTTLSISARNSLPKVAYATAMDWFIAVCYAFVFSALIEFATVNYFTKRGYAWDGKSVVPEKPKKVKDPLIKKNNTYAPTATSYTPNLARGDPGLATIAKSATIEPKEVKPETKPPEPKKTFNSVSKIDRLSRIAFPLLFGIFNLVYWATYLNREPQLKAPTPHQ
T1 sequence (P47870 26-512): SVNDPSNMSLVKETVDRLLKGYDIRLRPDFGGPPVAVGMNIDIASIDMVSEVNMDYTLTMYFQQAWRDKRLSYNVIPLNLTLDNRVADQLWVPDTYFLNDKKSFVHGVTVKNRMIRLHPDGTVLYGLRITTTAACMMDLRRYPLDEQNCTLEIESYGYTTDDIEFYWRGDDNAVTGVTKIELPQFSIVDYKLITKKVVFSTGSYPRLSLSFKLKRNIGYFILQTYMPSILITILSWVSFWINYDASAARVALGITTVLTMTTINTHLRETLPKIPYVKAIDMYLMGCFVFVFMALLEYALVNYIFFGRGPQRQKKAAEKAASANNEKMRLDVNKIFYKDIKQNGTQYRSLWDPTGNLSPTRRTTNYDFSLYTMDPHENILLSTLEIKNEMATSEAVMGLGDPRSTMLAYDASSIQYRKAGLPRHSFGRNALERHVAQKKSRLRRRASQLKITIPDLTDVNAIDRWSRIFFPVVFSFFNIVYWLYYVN
T1 sequence (P18507 40-475 partner): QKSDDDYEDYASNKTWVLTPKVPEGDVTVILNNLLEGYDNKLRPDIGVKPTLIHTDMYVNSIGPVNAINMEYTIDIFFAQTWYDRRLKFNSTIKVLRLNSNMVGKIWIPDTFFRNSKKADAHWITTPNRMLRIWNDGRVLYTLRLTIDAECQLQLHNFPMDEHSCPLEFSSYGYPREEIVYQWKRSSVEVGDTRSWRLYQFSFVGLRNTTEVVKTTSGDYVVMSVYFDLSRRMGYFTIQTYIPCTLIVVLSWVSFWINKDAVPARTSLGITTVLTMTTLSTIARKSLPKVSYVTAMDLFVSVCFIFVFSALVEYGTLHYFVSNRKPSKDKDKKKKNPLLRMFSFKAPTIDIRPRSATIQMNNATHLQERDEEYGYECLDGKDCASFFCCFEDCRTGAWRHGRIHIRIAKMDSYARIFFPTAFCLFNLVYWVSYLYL
Nature of the series: Two Electrode Voltage Clamp (TEVC), GABA receptor potentiation in Xenopus laevis oocytes, α1β2γ2. Format: cell-based. The following applies: 10 μM compound, 10 μM GABA, read-out: GABA (α1β2γ2) % efficacy at 10 μM. In general terms: In two-electrode clamp one electrode senses voltage and the other passes current.

Series [3] has as its target T2, recombinant α1β2γ2 GABAA receptors (Homo sapiens, UniProt P14867+P47870).
T2 construct: expressed in transfected cells; host or cells: LTK cells, stably transfected
Nature of the series: Patch clamp electrophysiology (QPatch) in LTK cells stably transfected with α1β2γ2. The series is classed as cell-based. The following applies: 10 μM compound, 2 μM GABA (EC20), read-out: GABA (α1β2γ2) Qpatch in Ltk, % efficacy at 10 μM. For orientation: Patch clamp records ionic current or voltage across a cell membrane.

The target of series [4] is T3, recombinant α4β3δ GABAA receptors (Homo sapiens, UniProt P28472+P48169).
T3 construct: expressed in transfected cells; host or cells: CHO cells, transiently transfected (Lipofectamine)
T3 sequence (P48169 36-554): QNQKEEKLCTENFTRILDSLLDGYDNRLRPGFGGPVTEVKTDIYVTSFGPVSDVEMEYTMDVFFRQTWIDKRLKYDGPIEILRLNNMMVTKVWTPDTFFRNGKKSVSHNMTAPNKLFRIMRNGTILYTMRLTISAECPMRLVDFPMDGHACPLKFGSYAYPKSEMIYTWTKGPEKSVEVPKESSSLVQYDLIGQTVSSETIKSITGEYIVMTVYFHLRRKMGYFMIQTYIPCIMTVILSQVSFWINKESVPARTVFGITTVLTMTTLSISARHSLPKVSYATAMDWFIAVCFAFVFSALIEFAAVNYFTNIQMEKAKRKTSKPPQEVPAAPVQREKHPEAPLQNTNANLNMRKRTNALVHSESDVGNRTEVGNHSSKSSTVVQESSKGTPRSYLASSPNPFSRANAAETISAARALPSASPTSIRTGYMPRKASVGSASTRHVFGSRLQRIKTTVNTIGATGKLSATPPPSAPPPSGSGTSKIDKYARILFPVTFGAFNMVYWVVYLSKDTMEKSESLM
T3 sequence (P28472 26-473): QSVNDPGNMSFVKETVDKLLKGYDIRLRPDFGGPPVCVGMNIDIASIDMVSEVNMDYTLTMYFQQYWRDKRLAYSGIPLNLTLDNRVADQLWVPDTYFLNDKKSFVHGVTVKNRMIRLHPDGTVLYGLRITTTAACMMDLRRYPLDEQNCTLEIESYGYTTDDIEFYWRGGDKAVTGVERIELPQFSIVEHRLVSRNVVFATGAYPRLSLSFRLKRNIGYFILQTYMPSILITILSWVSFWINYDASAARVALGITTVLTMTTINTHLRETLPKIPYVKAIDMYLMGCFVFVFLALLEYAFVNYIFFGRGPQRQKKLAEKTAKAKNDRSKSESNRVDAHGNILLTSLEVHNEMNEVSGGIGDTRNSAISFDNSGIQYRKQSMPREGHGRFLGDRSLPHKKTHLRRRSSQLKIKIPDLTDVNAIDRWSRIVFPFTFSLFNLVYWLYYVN
T3 sequence (O14764 25-452 partner): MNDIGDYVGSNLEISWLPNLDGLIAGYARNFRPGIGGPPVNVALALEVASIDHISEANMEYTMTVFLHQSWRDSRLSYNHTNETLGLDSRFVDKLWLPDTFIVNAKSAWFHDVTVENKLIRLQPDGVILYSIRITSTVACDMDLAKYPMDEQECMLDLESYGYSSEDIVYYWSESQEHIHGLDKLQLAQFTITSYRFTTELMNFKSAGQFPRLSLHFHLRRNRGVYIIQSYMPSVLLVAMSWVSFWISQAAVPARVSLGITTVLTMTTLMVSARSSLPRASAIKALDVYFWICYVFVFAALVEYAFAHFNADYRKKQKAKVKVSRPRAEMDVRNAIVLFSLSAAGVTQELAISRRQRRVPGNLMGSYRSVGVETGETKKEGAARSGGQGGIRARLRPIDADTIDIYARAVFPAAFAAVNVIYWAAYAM
Briefly: Manual patch clamp electrophysiology in CHO cells transiently transfected with α4β3δ. The settings on record: 10 μM compound, 2 μM GABA (EC20), read-out: GABA (α4β3δ) Manual patch in CHO, % efficacy at 10 μM. Format: cell-based.

T2 sequence (P14867 28-456): as the sequence (P14867 28-456) above
T2 sequence (P47870 26-512): as the sequence (P47870 26-512) above
T2 sequence (P18507 40-475 partner): as the sequence (P18507 40-475 partner) above

As usually defined, the IC50 is the concentration at which inhibition is half-maximal. For orientation: melting point means the temperature, or range, at which the solid turns liquid. The molecule `COC[C@]12CC[C@@](C)(O)C[C@@H]1CC[C@H]1[C@@H]3CC[C@H](C(=O)CN4CCN(C)CC4)[C@@]3(C)CC[C@@H]12` [Compound 8] came in with a melting point of 136 to 137 °C. The 50% inhibitory concentration (IC50) in series [1] was over 0.5 µM.

As to `COC[C@]12CC[C@@](C)(O)C[C@@H]1CC[C@H]1[C@@H]3CC[C@H](C(=O)Cn4cc(C#N)cn4)[C@@]3(C)CC[C@@H]12` [Compound 13], the melting point is 141 to 142 °C. Further, the IC50 in series [1] lay in the range of 0.05 to 0.1 µM. In series [2], the Emax at 10 µM is 1000 to 1500%.

In turn, `COC[C@]12CC[C@@](C)(O)C[C@H]1CC[C@H]1[C@@H]3CC[C@H](C(=O)Cn4cc(C#N)cn4)[C@@]3(C)CC[C@@H]12` [Compound 27] had a melting point of 176 to 178 °C. Moreover, in series [1], the half-maximal inhibitory concentration (IC50) is under 0.01 µM. Also, the Emax at 10 µM in series [2] was in the range of 1000 to 1500%.

As to `COC[C@]12CC[C@@](C)(O)C[C@H]1CC[C@H]1[C@@H]3CC[C@H](C(=O)Cn4cc(Cl)cn4)[C@@]3(C)CC[C@@H]12` [Compound 34], the melting point lay in the range of 163 to 165 °C. Also, in series [1], the 50% inhibitory concentration (IC50) is under 0.01 µM. Besides, the Emax at 10 µM in series [2] lay in the range of 50 to 500%.

`COC[C@]12CC[C@@](C)(O)C[C@@H]1CC[C@H]1[C@@H]3CC[C@H](C(=O)Cn4cnnn4)[C@@]3(C)CC[C@@H]12` [Compound 15] came in with a melting point of 88 to 91 °C. In addition, the Emax at 10 µM in series [3] is over 500%. For the same molecule, in series [1], the concentration for half-maximal inhibition (IC50) lay in the range of 0.1 to 0.5 µM. In series [4], the Emax at 10 µM was in the range of 100 to 500%.

In turn, `COC[C@]12CC[C@@](C)(O)C[C@@H]1CC[C@H]1[C@@H]3CC[C@H](C(=O)Cn4ncnn4)[C@@]3(C)CC[C@@H]12` [Compound 14] had a melting point of 72 to 75 °C. The Emax at 10 µM in series [3] fell in the range of 100 to 500%. Also, the IC50 in series [1] fell in the range of 0.01 to 0.05 µM. Further, the Emax at 10 µM in series [4] was over 500%.

For the molecule `COC[C@]12CC[C@@](C)(O)C[C@@H]1CC[C@H]1[C@@H]3CC[C@H](C(=O)Cn4nc5cc(F)cc(F)c5n4)[C@@]3(C)CC[C@@H]12` [Compound 55], the Emax at 10 µM in series [3] and in series [4] was over 500% throughout. For the same molecule, the IC50 in series [1] was in the range of 0.05 to 0.1 µM.

With `COC[C@]12CC[C@@](C)(O)C[C@@H]1CC[C@H]1[C@@H]3CC[C@H](C(=O)Cn4nnc5ccc(Cl)cc54)[C@@]3(C)CC[C@@H]12` [Compound 36], the Emax at 10 µM in series [3] and in series [4] was 100 to 500% throughout. The IC50 in series [1] lay in the range of 0.01 to 0.05 µM.

Regarding `COC[C@]12CC[C@@](C)(O)C[C@@H]1CC[C@H]1[C@@H]3CC[C@H](C(=O)Cn4nc5ccc(F)c(F)c5n4)[C@@]3(C)CC[C@@H]12` [Compound 54], the Emax at 10 µM in series [3] was 100 to 500%; in series [4] it was over 500%. Also, the IC50 in series [1] is 0.01 to 0.05 µM.

Take `COC[C@]12CC[C@@](C)(O)C[C@H]1CC[C@H]1[C@@H]3CC[C@H](C(=O)Cn4nnnc4C)[C@@]3(C)CC[C@@H]12` [Compound 30]: the Emax at 10 µM was 100 to 500% in series [3] and over 500% in series [4]. Also, in series [1], the half-maximal inhibitory concentration (IC50) was under 0.01 µM.

Turning to `COC[C@]12CC[C@@](C)(O)C[C@@H]1CC[C@H]1[C@@H]3CC[C@H](C(=O)Cn4ccnn4)[C@@]3(C)CC[C@@H]12` [Compound 3], the melting point was in the range of 72 to 74 °C. Besides, the IC50 in series [1] is over 0.5 µM.
